Assay [1] has as its system subcutaneously-implanted, rat fetal urogenital sinus-derived tissues. Nature of the assay: Inhibition of weight increase of rat fetal urogenital sinus-derived tissue implanted subcutaneously in nude mice (prostatic stromal hyperplasia model). The class given is in vivo, male nude mice (BALB/cA Jcl-nu). To be noted: for Rate of inhibition (%) to weight increase of implanted tissue: tissue weighed day 14, vs solvent group. An excerpt: Under ether anesthesia, fetuses were removed from female SD rats that were 21 days pregnant. From the removed male fetuses, urogenital sinuses were removed also under ether anesthesia while observing through a stereoscopic microscope. The urogenital sinuses were stored in a sterilized culture medium until implantation. The abdominal skin adjacent the left femoral region of 6-week old BALB/c male nude mice was cut open about 2 to 3 mm under ether anesthesia. A single rat fetal urogenital sinus obtained in (1) above was subcutaneously implanted after incision using a forceps and the incision was sutured. Thereafter, these nude mice were reared in clean racks (Rat Bracket Cages, 3 to 4 mice/cage) for 2 weeks under the following conditions: • Temperature: 20 to 26° C. • Humidity: 30 to 70% • Lighting hours: 12-hour light-dark cycle; light-on at 8 am and light-out at 8 pm • Feed and feeding method: solid feed for mouse, MF (irradiated), ad libitum • Water and watering method: tap water, ad libitum (3) Weighing of Implanted Tissue (Rat Fetal Urogenital Sinus-derived Tissue) Animal models for prostatic stromal hyperplasia of the invention were prepared according to the methods described in Example 1 (1) and (2) by implanting the urogenital sinuses of rat fetuses (21 day-old) beneath the abdominal skin of 6-week-old male nude mice (BALB/cA Jcl-nu). For 2 weeks from the implantation day (day 0), a known therapeutic agent for benign prostatic hyperplasia, i.e., chlormadinone acetate (anti-androgen agent: 6-chloro-3,20-dioxopregna-4,6-dien-17,alpha-yl acetate; suspended or dissolved in 0.5% hydroxypropylmethyl cellulose (0.5% HPMC) solvent) was forcedly administered orally once a day (3 test substance-administered groups: 30 mg/kg·day, 100 mg/kg·day, 300 mg/kg·day; n=10 mice/group). Two weeks after the beginning of administration (day 14), the model animals were sacrificed by over anesthesia, and the implanted tissues (rat fetal urogenital sinus-derived tissues) were removed and weighed (weights from the test substance-administered groups). As a control experiment, for 2 weeks after implantation, model animals (solvent-administered group: n=10 mice) were forcedly administered with a solvent (0.5% HPMC), no chlormadinone acetate dissolved therein, once a day orally. […] The inhibition rate to weight increase of the subcutaneously-implanted, rat fetal urogenital sinus-derived tissues was calculated according to the formula shown in Equation 1, with respect to each chlormadinone acetate-administered group, and the effects of the therapeutic agent for benign prostatic hyperplasia (chlormadinone acetate) upon these tissues were then evaluated. […]

Assay [2] deals with rat fetal urogenital sinus-derived tissues implanted beneath the prostatic capsules. Nature of the assay: Inhibition of weight increase of rat fetal urogenital sinus-derived tissue implanted beneath the prostatic capsule of rats (prostatic stromal hyperplasia model). The class given is in vivo, male SD rats. An excerpt:
Under ether anesthesia, fetuses were removed from female SD rats that were 20 days pregnant. From the removed fetuses, the urogenital sinuses were removed under ether anesthesia while observing through a stereoscopic microscope. The urogenital sinuses were stored in a sterilized culture medium until implantation. The prostate glands were exposed by midline incision using 6-week old male SD rats under ether anesthesia. The capsule of prostate right ventral lobe was slightly cut open while observing through a stereoscopic microscope. Two of the fetal urogenital sinuses obtained in (1) above were implanted using a forceps beneath the capsule, and the incision in the capsule was sutured. The cut abdominal skin then closed and the rats were reared for 2 to 8 weeks in normal rearing cages (Rat Bracket Cages, 3 to 4 rats/cage) under the following conditions: • Temperature: 20 to 26° C. • Humidity: 30 to 70% • Lighting hours: 12-hour light-dark cycle; light-on at 8 am and light-out at 8 pm • Feed and feeding method: solid feed for mouse, MF (irradiated), ad libitum • Water and watering method: tap water, ad libitum (3) Weighing of Implanted Tissue (Rat Fetal Urogenital Sinus-derived Tissue) Animal models for prostatic stromal hyperplasia of the present invention were prepared according to the methods described in Examples 2 (1) and (2) by implanting the urogenital sinuses of rat fetuses (20 days of intrauterine life) beneath the capsules of prostate ventral lobes of 6-week-old male SD rats. […] The rate inhibition to weight increase of the rat fetal urogenital sinus-derived tissues implanted beneath the prostatic capsules was calculated according to the formula shown in Equation 1 above, and the effects of the therapeutic agent on benign prostatic hyperplasia (chlormadinone acetate) were then evaluated. • Experiment (2): Animal models for prostatic stromal hyperplasia prepared as above were reared under the conditions described in Example 2 (2) for 3 weeks (until day 21) from the implantation day (day 0). […]

On to `CC(=O)O[C@]1(C(C)=O)CC[C@H]2[C@@H]3C=C(Cl)C4=CC(=O)CC[C@]4(C)[C@H]3CC[C@@]21C` [chlormadinone acetate, 6-chloro-3,20-dioxopregna-4,6-dien-17,alpha-yl acetate], for which the “Rate of inhibition (%) to weight increase of implanted tissue” value in assay [1] (30 mg/kg·day orally once a day for 2 weeks from implantation day) was determined as 21.8%; in assay [1] (100 mg/kg·day orally once a day for 2 weeks from implantation day), 39.5%; in assay [1] (300 mg/kg·day orally once a day for 2 weeks from implantation day), 38.8%; in assay [2] (Experiment (1): 10 mg/kg·day orally for 3 weeks from implantation date, tissue weighed day 21), 30.7%; in assay [2] (Experiment (2): 10 mg/kg·day orally for 3 weeks from 3 weeks after implantation (day 21 to day 42), tissue weighed day 42), 67.0%. For the same compound, the “Effect on tissue weight increase (in words)” value in assay [1] (oral, 2 weeks of rearing after implantation, subcutaneous implant in nude mice) is “significantly inhibits the tissues weight increase”; in assay [2] (Experiments (1) and (2), 10 mg/kg·day oral, implant beneath prostatic capsule of rats), “significantly inhibits the tissue weight increase”.
